# Active and inactive are the calls of the source.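 The calls were made as follows: active = compounds blocking PP5 with IC50 under 10 µM; inactive = the rest.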
# Target: Serine/threonine-protein phosphatase 5 (Homo sapiens) (UniProt P53041)
# Assay: human PP5c inhibition, concentration series – biochemical, fluorescence, OMFP substrate, set 1, selectivity assay for PP1 inhibitor project, late-stage follow-up (AID 652226)
# Details: purified PP5c, OMFP dephosphorylation
# Serine/threonine-protein phosphatase 5 (Homo sapiens), sequence (P53041 whole entry, looked up): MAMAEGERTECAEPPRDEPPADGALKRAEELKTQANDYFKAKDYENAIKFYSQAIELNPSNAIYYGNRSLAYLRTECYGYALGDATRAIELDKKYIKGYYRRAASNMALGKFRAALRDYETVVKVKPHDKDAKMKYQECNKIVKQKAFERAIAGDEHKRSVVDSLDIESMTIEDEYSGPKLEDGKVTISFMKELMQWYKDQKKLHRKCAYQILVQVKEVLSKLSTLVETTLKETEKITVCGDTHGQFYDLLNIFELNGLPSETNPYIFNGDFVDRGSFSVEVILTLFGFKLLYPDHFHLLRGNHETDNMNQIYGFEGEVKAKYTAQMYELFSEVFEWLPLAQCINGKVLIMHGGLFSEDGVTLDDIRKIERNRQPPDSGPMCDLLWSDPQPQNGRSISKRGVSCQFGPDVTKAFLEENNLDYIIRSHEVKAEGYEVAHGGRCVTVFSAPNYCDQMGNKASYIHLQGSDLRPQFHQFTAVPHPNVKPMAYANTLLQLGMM
row,Compound,IC50
1,Oc1c(Cc2ccccn2)ccc2cccnc12,inactive
2,CN1CCN(C(c2ccccn2)c2ccc3cccnc3c2O)CC1 (stereo not drawn),inactive
3,Oc1c(C(c2ccccn2)N2CCOCC2)cc(Cl)c2cccnc12 (stereo not drawn),inactive
